Entries after “also recorded” stand apart in the source; their conditions may differ. Read-outs that look alike come from different tables or passages of the source.
Key:
[1] = test system: IL-1-induced COX-2 expression; assay: IL-1-induced COX-2 expression in S112 human dermal fibroblasts (MIF-dependent bioassay); assay type: cell-based
Experimental: The activity of compounds was studied in a bioassay utilising MIF-dependent activation of human dermal fibroblasts. […] IL-1-induced COX-2 expression is therefore a MIF-dependent event. […] Prior to experimentation, cells were seeded at 10^5 cells/ml in RPMI/0.1% BSA for 18 hours. […] After 6 hours, cells were collected and intracellular COX-2 protein determined by permeabilisation flow cytometry. […] Cellular fluorescence was determined using a flow cytometer. At least 5000 events were counted for each reading, each of which was performed in duplicate, and the results expressed in mean fluorescence intensity (MFI) after subtraction of negative control-labelled cell fluorescence. The effect of each compound was determined by subtracting the IL-1+compound-treated cell MFI from the IL-1-treated cell (control) MFI and expressed as % inhibition. In each case the % inhibition of IL-1-induced COX-2 expression is expressed as the mean, or mean±SEM where results are available from multiple experiments.

[2] = test system: antigen-specific T cell activation; assay: antigen-specific (mBSA) activation of splenic T lymphocytes, 3H-thymidine incorporation; assay type: cell-based, mice; details: Mus musculus, T-cell, read-out: EC50, inhibition of T cell activation
Experimental: C57BL6/J male mice, aged 7-10 weeks old, were immunised with 200 μg of methylated bovine serum albumin (mBSA) dissolved in 20 μL of saline, emulsified in 200 μL of Freund's complete adjuvant (FCA) by subcutaneous injection. Seven (7) days later mice received a booster immunisation with 100 μg mBSA in 10 μL saline plus 100 μL FCA by subcutaneous injection. After a further seven (7) days mice were killed and spleens collected aseptically into Hanks buffered saline solution (HBSS). A single cell suspension was prepared in Petri dishes by flushing DMEM using a 26G needle and 2 mL syringe. The resulting cell suspension was centrifuged for 5-7 minutes and supernatant discarded. Erythrocytes were lysed using a solution containing 0.579% NH4Cl, 0.000037% EDTA, and 0.1% NaHCO3 in a 37° C. water bath. Tubes were then filled with DMEM and centrifuged for 5-7 minutes. The cell-containing pellet was then resuspended in DMEM containing 5% fetal calf serum TICS) and 0.05% 2-mercapto-ethanol at a concentration of 1×10^6 cells/mL and plated at 1×10^5 cells/well in 96-well plastic tissue culture plates. Test substances (compound or vehicle) were added and incubated for 1 hour in a 37° C., 5% CO2 incubator. The specific stimulating antigen, mBSA, was then added at 10-50 μg/ml and plates incubated for 30 hours in a 37° C., 5% CO2 incubator. Tritiated ^3H-thymidine was then added at a concentration of 0.5 μCi/well for a further 18 hours. Cells were harvested on a Packard cell harvester, and the harvested material added to 750 μL/tube scintillation fluid. Scintillation counts were read on a Wallac beta-emission counter.
The concentration at which T cell activation was suppressed by 50% compared to vehicle-only-treated cells (EC50) was calculated using Prism® software. […] Further compounds were also tested for their ability to inhibit antigen-specific T cell activation as a marker of the inhibition of the cytokine or biological activity of MIF using this assay. Table 5 lists the EC50 for each compound in this assay, performed with concentrations of mBSA of either 50 or 10 μg/ml.

[3] = test system: murine antigen induced arthritis; assay: murine antigen-induced arthritis, histological score; assay type: in vivo, mice
Experimental: Antigen-induced arthritis was induced in mice. C57BL6/J male mice, aged 7-10 weeks old, were immunized on day 0 with 200 μg methylated BSA (mBSA) emulsified in 200 μl of Freund's complete adjuvant (FCA) injected subcutaneously into the flank skin. Mice were treated with compound 5, administered by intraperitoneal injection, once per 24 hours at a dose of 15 mg/kg body weight. After seven days, mice received 100 μg mBSA and 100 μl FCA by intradermal injection at the base of the tail. After a further 14 days, arthritis was induced by intra-articular injection of 30 μg mBSA in 10 μl of sterile saline into the left knee, the right knee being injected with sterile saline alone.
Arthritis was analysed histologically at day 28 after first immunisation. Knee joints were dissected and fixed in 10% buffered formalin for 7 days. Fixed tissues were decalcified for 3 weeks in 15% ethylene-diamine-tetra-acetic acid (EDTA), dehydrated and embedded in paraffin. Sagittal sections (5 μm) of the knee joint were stained with Safranin-O and counterstained with fast green/iron hematoxylin. Histological sections were scored from 0 to 3 for four parameters: Synovitis was defined as hyper-cellularity of the synovium including pannus formation. Joint space exudate was identified as leukocytes, discretely or in aggregates, in the joint space. Cartilage degradation was defined as the loss of Safranin-O staining of articular cartilage (0=full stained cartilage, 3=totally unstained cartilage). Bone damage was defined as the extent and depth of the subchondral bone invasion by pannus. A total score was also generated from the sum of these four parameters (maximum 12).

[4] = test system: lymph node and splenic T cells; assay: ex vivo antigen-specific T cell activation after in vivo treatment; parameters: species or system mice
Description: In vivo administration of such a compound might be expected to exert effects on T cell responsiveness even after the T cells have been removed from exposure to the compound, that is, if T cells were studied ex vivo after in vivo treatment with the MIF antagonist compound. To measure ex vivo antigen-specific T cell activation, draining lymph nodes from arthritic limbs or spleens were removed from mice with murine antigen induced arthritis, induced as above with mBSA, at day 28 after first immunisation and a single cell suspension prepared in DMEM containing 5% FCS and 0.05% 2-mercaptoethanol. 1×10^5 cells/200 μl were cultured in triplicate in the presence or absence of mBSA (0.1, 1.0, 10 μg/ml) in 96-well plates for 48 hours (37° C., 5% CO2.) The T cell proliferation response was determined by measuring ^3H-thymidine incorporation during the final 18 hr. The cells were harvested and radioactivity incorporation into the DNA was measured with a Wallac 1409 liquid scintillation counter. The means of each triplicate culture were calculated. Each experiment comprised at least three individual animals and the results presented represent the mean±SEM of groups of animals in each experiment. The percentage inhibition of T cell proliferation was calculated using the result of the […] incorporation of cells from compound-treated animals subtracted from the ^3H-thymidine incorporation of cells from vehicle-treated animals.

[5] = test system: murine peritoneal macrophage cytokine production; assay: inhibition of peritoneal macrophage cytokine production (ELISA); assay type: cell-based, mice; details: Mus musculus
Experimental: C57BL6/J male mice were injected intraperitoneally with 2 ml of thioglycollate. Five (5) days later peritoneal macrophages were collected by lavaging the peritoneum of anaesthetized mice with 3 ml of cold Hanks buffered saline solution. Cells from several mice were pooled, washed and re-suspended in DMEM supplemented with 5% FCS. Cells were plated in 96 well plastic tissue culture plates at 1×10^5 cells/well. Cells were treated with compound or vehicle for 1 hour in a 5% CO2 incubator at 37° C. Cells were then treated with LPS (10-100 ng/ml) or recombinant human interferon-γ (10 units/ml) and incubated for 24 hours. After 24 hours, 50 μl of supernatant from each well was carefully removed and transferred to ELISA plates. The concentration of interleukin 1 (IL-1) or interleukin 6 (IL-6) was measured by ELISA. The concentration of compound at which LPS- or interferon-γ-induced cytokine release was suppressed by 50% compared to vehicle-only-treated cells (EC50) was calculated using Prism® software. Table 9 lists the EC50 for two compounds tested in this assay.

[6] = test system: IL-1 induced phosphorylation of ERK; assay: IL-1 induced phosphorylation (activation) of ERK, Western blotting; assay type: cell-based, human; details: dexamethasone 10^-9 M alone; human dermal fibroblasts, IL-1 0.1 ng/ml, 30 minutes
Experimental: S112 human dermal fibroblasts cultured in RPMI (serum-free) medium were stimulated with recombinant human IL-1 0.1 ng/ml, as described herein, for 30 minutes, with or without the addition of dexamethasone 10^−9M or benzimidazol-2-one-5-pentanoate (compound 5) (50 μM). The phosphorylation (activation) of ERK was assessed using Western blotting with a mAb specific for the phosphorylated (activated) form of ERK. In brief, cells were disrupted by repeated aspiration through a 21-gauge needle. After incubation on ice for 10 min and microcentrifugation at 3000 rpm for 15 min (4° C.), the supernatants were removed, the protein concentration was determined, and the lysates were stored at −80° C. Equal amounts of cellular proteins were fractionated on 10% SDS-polyacrylamide electrophoresis gels and transferred to polyvinylidene difluoride membranes. Immunoblotting was performed using antibodies directed against phospho-p44/42 (ERK) and total p44142 according to the manufacturer's instructions. The intensity of ERK activation is proportional to the size and optical density (darkness) of the resulting blots. Total ERK blots serve as a loading control, such that changes in phosphorylated ERK represent changes in phosphorylation and not in total ERK protein.

Row | EC50 ([2]; mBSA 10 μg/ml) [µM] | EC50 ([2]; mBSA 50 μg/ml) [µM] | EC50 ([5]; Interferon-γ 10 units/ml, read-out: EC50, IL-6 release) [µM] | EC50 ([5]; [LPS] 100 ng/mL, read-out: EC50, IL-1 release) [µM] | SMILES | inhibition at 1 µM ([1]; Homo sapiens, Fibroblast, compound 1 μM, S112 cells, IL-1 0.1 ng/ml, 6 hours) [%] | inhibition at 10 µM ([1]; Homo sapiens, Fibroblast, compound 10 μM, S112 cells, IL-1 0.1 ng/ml, 6 hours) [%] | inhibition at 50 µM ([1]; Homo sapiens, Fibroblast, compound 50 μM, S112 cells, IL-1 0.1 ng/ml, 6 hours, read-out: % inhibition of IL-1-induced COX-2 expression) [%] | inhibition at 100 µM ([1]; Homo sapiens, Fibroblast, compound 100 μM, S112 cells, IL-1 0.1 ng/ml, 6 hours) [%] | Total arthritis score (mean ± SEM) ([3]; maximum 12, vehicle 6.25 ± 0.2) | severity of murine antigen induced arthritis ([3]; mouse, in vivo) | ex vivo splenic T cell proliferation in response to mBSA ([4]; FIG. 11b, table 7, vs vehicle) | % inhibition of ex vivo splenic T cell activation ([4]; [mBSA] 10 μg/mL) [%] | % Inhibition of IL-1 induced COX-2 expression ([1]; Table 2 experiment, dexamethasone 10^-9 M alone) [%] | ERK activation by IL-1 [6]
1 | 53.3 | 71.7 | 9.82 | 16.7 | O=C(NCCc1ccc(O)c(O)c1)c1ccc2[nH]c(=O)[nH]c2c1 [Compound 13, N-(3,4-dihydroxyphenethyl)-2-oxo-2,3-dihydro-1H-1,3-benzimidazole-5-carboxamide] | 9.6 | 14.1 | 32.2 | 29.9 | 5.17 ± 1.9 | inhibitory effect | reduced proliferative responses | 28 |  | 
2 |  |  |  |  | C[C@@H]1C[C@H]2[C@@H]3CCC4=CC(=O)C=C[C@]4(C)[C@@]3(F)[C@@H](O)C[C@]2(C)[C@@]1(O)C(=O)CO [Dexamethasone, dexamethasone] |  |  |  |  |  |  |  |  | 46.8 | does not inhibit; also recorded: not inhibited

From US7709514B2, “Therapeutic molecules and methods-1” (Cortical Pty Ltd, priority 2002, dated 2010)
